Measured values as given in BindingDB's records for doi:10.7270/Q2V40ST1 (Burnham Center For Chemical Genomics, 2012).

biological target: Polyadenylate-binding protein 1 (Homo sapiens, UniProt P11940); experiment: PABP1 MLLE–PAM2 interaction inhibitors, dose response, miRNA deadenylation inhibitor project, biochemical, fluorescence polarization, Cy5-PAM2 peptide, secondary (AID 602260)
Sequence (P11940 whole entry): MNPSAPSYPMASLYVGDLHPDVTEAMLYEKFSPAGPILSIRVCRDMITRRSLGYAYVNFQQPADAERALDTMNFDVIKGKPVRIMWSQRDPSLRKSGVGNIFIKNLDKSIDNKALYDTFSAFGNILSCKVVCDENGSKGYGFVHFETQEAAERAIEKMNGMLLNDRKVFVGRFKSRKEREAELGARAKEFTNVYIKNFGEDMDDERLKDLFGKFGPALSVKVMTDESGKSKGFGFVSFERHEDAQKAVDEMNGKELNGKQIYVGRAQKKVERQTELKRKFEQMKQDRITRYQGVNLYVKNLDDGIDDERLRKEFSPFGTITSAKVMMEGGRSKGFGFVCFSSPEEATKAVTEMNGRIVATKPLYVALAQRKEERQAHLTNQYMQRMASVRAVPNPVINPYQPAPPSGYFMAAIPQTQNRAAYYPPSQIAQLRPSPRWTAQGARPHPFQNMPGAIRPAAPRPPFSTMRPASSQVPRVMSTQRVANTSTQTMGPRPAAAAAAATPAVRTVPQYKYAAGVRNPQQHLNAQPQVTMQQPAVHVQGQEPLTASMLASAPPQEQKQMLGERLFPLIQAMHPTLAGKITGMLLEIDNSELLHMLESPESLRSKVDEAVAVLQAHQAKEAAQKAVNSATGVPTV

Structure (SMILES)	IC50 [µM]
O=C(Cc1sc(=O)n(-c2ccccc2)c1O)Nc1ccccc1 [2-(2,4-diketo-3-phenyl-thiazolidin-5-yl)-N-phenyl-acetamide]	> 66
CCOC(=O)c1ccc(NC(=O)Cc2sc3ncnn3c2O)cc1	> 66
CCSc1sccc1C1C2=C(CCCC2=O)N(c2cccnc2)C(=N)C1C#N (stereo not drawn) [2-azanyl-4-(2-ethylsulfanylthiophen-3-yl)-5-oxidanylidene-1-pyridin-3-yl-4,6,7,8-tetrahydroquinoline-3-carbonitrile]	> 66
CCOC(=O)CC1=C(C(=O)OCC)C(c2ccc(C)o2)C(C#N)C(=N)O1 (stereo not drawn) [ethyl 6-amino-5-cyano-2-(2-ethoxy-2-oxoethyl)-4-(5-methyl-2-furyl)-4H-pyran-3-carboxylate]	> 66
CCOc1cc(C2C3=C(CCCC3=O)N=C3CCCC(=O)C32)ccc1OCCO (stereo not drawn) [9-[3-ethoxy-4-(2-hydroxyethoxy)phenyl]-2,3,4,5,6,7,9,10-octahydroacridine-1,8-dione]	> 66
Cc1cc(C(F)(F)F)nc(SCC(=O)Nc2nc(O)c(C)s2)n1 [N-(5-methyl-4-oxidanylidene-1,3-thiazol-2-yl)-2-[4-methyl-6-(trifluoromethyl)pyrimidin-2-yl]sulfanyl-ethanamide]	> 66
Cc1ccc(NC(=O)Cc2sc(=O)n(-c3ccccc3)c2O)cc1	> 66
COc1ccc(C2=Nc3nnnn3C(c3ccc(F)cc3)C2)cc1 (stereo not drawn) [SMR000108015]	> 66
N#CC1C(=N)C2=C(N3CCCCC3)CCCC2C1(C#N)C#N (stereo not drawn) [3-Amino-4-piperidin-1-yl-5,6,7,7a-tetrahydro-indene-1,1,2-tricarbonitrile]	> 66
COc1cc2c(cc1OC)C(c1ccccc1O)N(c1cc(O)n(-c3ccccc3)c1O)CC2 (stereo not drawn)	> 66
CC(C)C1=NC(=O)NC2CCCCC12 (stereo not drawn) [SMR000060291]	> 66
O=C(O)CSc1cc(O)n(-c2ccc(Cl)c(Cl)c2)c1O	> 66
COc1ccc(NC(=O)Cc2sc3ncnn3c2O)cc1 [MLS000115464]	> 66
